From ChEMBL document CHEMBL1154228, “Photoregulation of thrombin aptamer activity using Bhc caging strategy” (Bioorg Med Chem Lett, 2009)

Key:
[1] = biological target: T1, Prothrombin (Homo sapiens, UniProt P00734); experiment: Binding affinity to thrombin by surface plasmon resonance assay
[2] = biological target: T1, Prothrombin; experiment: Binding affinity to thrombin in presence of 100 mJ/cm'2 UV light by surface plasmon resonance assay

For `Cc1cn([C@H]2C[C@H](OP(=O)(O)OC[C@H]3O[C@@H](n4cnc5c(=O)[nH]c(N)nc54)[C@H](O)[C@@H]3OP(=O)(O)OC[C@H]3O[C@@H](n4cnc5c(=O)[nH]c(N)nc54)[C@H](O)[C@@H]3OP(=O)(O)OC[C@H]3O[C@@H](n4cc(C)c(=O)[nH]c4=O)C[C@@H]3OP(=O)(O)OC[C@H]3O[C@@H](n4cc(C)c(=O)[nH]c4=O)C[C@@H]3OP(=O)(O)OC[C@H]3O[C@@H](n4cnc5c(=O)[nH]c(N)nc54)[C@H](O)[C@@H]3OP(=O)(O)OC[C@H]3O[C@@H](n4cnc5c(=O)[nH]c(N)nc54)[C@H](O)[C@@H]3O)[C@@H](COP(=O)(O)O[C@H]3[C@@H](O)[C@H](n4cnc5c(=O)[nH]c(N)nc54)O[C@@H]3COP(=O)(O)O[C@H]3C[C@H](n4cc(C)c(=O)[nH]c4=O)O[C@@H]3COP(=O)(O)O[C@H]3[C@@H](O)[C@H](n4cnc5c(=O)[nH]c(N)nc54)O[C@@H]3COP(=O)(O)O[C@H]3[C@@H](O)[C@H](n4cnc5c(=O)[nH]c(N)nc54)O[C@@H]3COP(=O)(O)O[C@H]3C[C@H](n4cc(C)c(=O)[nH]c4=O)O[C@@H]3COP(=O)(O)O[C@H]3C[C@H](n4cc(C)c(=O)[nH]c4=O)O[C@@H]3COP(=O)(O)O[C@H]3[C@@H](O)[C@H](n4cnc5c(=O)[nH]c(N)nc54)O[C@@H]3COP(=O)(O)O[C@H]3[C@@H](O)[C@H](n4cnc5c(=O)[nH]c(N)nc54)O[C@@H]3CO)O2)c(=O)[nH]c1=O` [THROMBIN APTAMER], the Kd [1] was 0.32 µM and the Kd [2] was 0.39 µM.
